In patent US20230339854A1, “Negative Allosteric Modulation of GluN3-Containing N-Methyl-D-Aspartate Receptors” (Emory University, priority 2020, published 2023):
Entries after “also recorded” stand apart in the source; their conditions may differ. Read-outs that look alike come from different tables or passages of the source.

Legend:
[1] = tested on: GluN1/GluN2 NMDA receptors (GluN2A, GluN2B, GluN2C, GluN2D); assay: Recombinant GluN1/GluN2 NMDA receptors in Xenopus oocytes (selectivity); format: cell-based, rat
[2] = target: T1, human GluN1^FA,TL/GluN3A receptors (Homo sapiens, UniProt Q8TCU5); assay: Two-electrode voltage-clamp recordings of GluN1^FA,TL/GluN3A receptors in Xenopus oocytes; format: cell-based; details: for hGluN1^FA,TL/hGluN3A (100 × Idrug/Icontrol): @ 10 μM; for Max Inhibition / % Inhibition GluN1^FATL/GluN3A: fitted maximum at saturating test compound; for Max Inhibition: 100 × (1 − Idrug/Icontrol); for Slope: concentration-response curve; for Slope / minimum: 1000 μM glycine; for minimum: residual response at saturating concentration; for remaining activity at 30 µM: read-out: hGluN1^FA,TL/hGluN3A (100 × Idrug/Icontrol at 30 μM drug)
T1 construct: Human GluN3A (NP_597702.2) and rat GluN3B (NP_579842.2) were synthesized and subcloned into SP6 plasmids; expressed in transfected cells; host or cells: Xenopus laevis oocytes, cRNA injection (GluN1:GluN3 1:3)
Method in brief: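 Human GluN1 with human GluN3A cRNA (1:3) in oocytes, recorded 2-5 days post-injection at 23° C, holding −40 mV, in Ba2+-containing recording solution pH 7.4. Compounds screened at 10 or 30 μM; those inhibiting >20% given concentration-response fits for IC50, Hill slope and residual inhibition.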

[3] = target: T2, rat GluN1-4a/GluN3B receptors (Rattus norvegicus, UniProt Q8VHN2); assay: Two-electrode voltage-clamp recordings of GluN1-4a/GluN3B receptors in the presence of CGP-78608 (Xenopus oocytes); format: cell-based; details: @ 10 μM drug; 0.5 μM CGP-78608
T2 construct: Human GluN3A (NP_597702.2) and rat GluN3B (NP_579842.2) were synthesized and subcloned into SP6 plasmids; expressed in transfected cells; host or cells: Xenopus laevis oocytes, cRNA injection
T2 sequence (Q8VHN2 25-1002, other chains not shown): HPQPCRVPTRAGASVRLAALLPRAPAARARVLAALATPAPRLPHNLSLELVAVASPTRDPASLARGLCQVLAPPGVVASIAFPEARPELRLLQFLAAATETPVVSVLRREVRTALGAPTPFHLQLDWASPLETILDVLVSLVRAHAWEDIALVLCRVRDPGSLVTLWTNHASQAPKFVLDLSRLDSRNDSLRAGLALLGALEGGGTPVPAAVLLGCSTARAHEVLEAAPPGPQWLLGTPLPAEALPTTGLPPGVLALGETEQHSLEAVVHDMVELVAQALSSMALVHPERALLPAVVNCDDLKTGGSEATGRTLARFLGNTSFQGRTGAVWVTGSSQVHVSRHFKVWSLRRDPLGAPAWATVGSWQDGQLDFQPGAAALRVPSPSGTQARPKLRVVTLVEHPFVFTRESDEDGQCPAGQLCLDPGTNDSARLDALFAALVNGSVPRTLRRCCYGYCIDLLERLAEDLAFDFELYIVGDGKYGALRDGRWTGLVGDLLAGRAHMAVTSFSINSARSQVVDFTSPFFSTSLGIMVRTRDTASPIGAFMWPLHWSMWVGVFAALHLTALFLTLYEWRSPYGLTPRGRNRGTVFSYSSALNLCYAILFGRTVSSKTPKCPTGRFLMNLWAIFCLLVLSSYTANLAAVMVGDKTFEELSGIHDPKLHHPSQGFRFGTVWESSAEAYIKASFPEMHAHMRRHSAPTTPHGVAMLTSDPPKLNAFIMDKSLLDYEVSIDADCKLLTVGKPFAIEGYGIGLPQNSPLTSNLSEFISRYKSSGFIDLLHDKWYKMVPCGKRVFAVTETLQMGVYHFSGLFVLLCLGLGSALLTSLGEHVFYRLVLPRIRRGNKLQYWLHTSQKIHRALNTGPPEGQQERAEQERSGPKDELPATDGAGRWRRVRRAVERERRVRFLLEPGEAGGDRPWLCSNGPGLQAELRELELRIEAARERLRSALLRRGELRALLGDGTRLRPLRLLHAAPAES
Source text: (§1) cDNA encoding human wild-type (WT) GluN1-1a (GenBank accession numbers NP_015566, hereafter GluN1) and rat GluN1-1a (NP_058706.1) were synthesized and subcloned into pGEMHE plasmid; some experiments used the rat splice variant GluN1-4a (NP_001257531.1). Human GluN3A (NP_597702.2) and rat GluN3B (NP_579842.2) were synthesized and subcloned into SP6 plasmids. For most experiments, human GluN1 was co-expressed with human GluN3A, except for mutagenesis experiments where rat GluN1 was co-expressed with human GluN3A. Rat GluN1-4a was always expressed with rat GluN3B.
(§2) Defolliculated Xenopus laevis oocytes (stage V-VI) were obtained from Ecocyte BioScience (Austin, Texas), or prepared from commercially available Xenopus ovaries (Xenopus 1, Dexter, MI) as previously described (Hansen, et al., Mol. Pharmacol., 2013). A Drummond Nanoject II (Broomall, PA) was used to inject oocytes with cRNAs encoding GluN1 and GluN3 at a 1:3 ratio in RNase-free water. The cRNA was diluted as needed to give responses with amplitudes ranging between 200-2000 nA (0.2-10 ng total cRNA). Following cRNA injection, the oocytes were stored at 15-19° C. in Barth's solution that contained (in mM) 88 NaCl, 2.4 NaHCO3, 1 KCl, 0.33 Ca(NO3)2, 0.41 CaCl2), 0.82 MgSO4, and 5 Tris-HCl (pH 7.4 with NaOH), supplemented with 1 μg/ml streptomycin (Invitrogen, Carlsbad, CA) and 100 μg/ml gentamicin (Fisher Scientific, Pittsburgh, PA). Recordings were performed 2-5 days following cRNA microinjection at room temperature (23° C.) using a two-electrode voltage-clamp amplifier (OC725, Warner Instrument, Hamilton, CT). The signal was low-pass filtered at 10-20 Hz (4-pole, −3 dB Bessel) and digitized at the Nyquist rate using PCI-6025E or USB-6212 BNC data acquisition boards (National Instruments, Austin, TX) using EasyOocyte (http://www.easyoocyte.io/). Oocytes were placed in a custom-made chamber and continuously perfused (2.5 ml/min) with oocyte recording solution containing (in mM) 90 NaCl, 1 KCl, 10 HEPES, 0.5-1.0 BaCl2, and 0.01 EDTA (pH 7.4 with NaOH). Solutions were applied by gravity, and solution exchange was controlled through a rotary valve (Hamilton, Reno, NV). Recording electrodes were filled with 0.3-3.0 M KCl, and current responses were recorded at a holding potential of −40 mV.
(§3) Response (%)=(100−minimum)/(1+([concentration]/IC50)^nH)+minimum (2) • where nH is the Hill slope, IC50 is the concentration that produces a half-maximal effect, and minimum is the degree of residual inhibition at a saturating concentration of the negative allosteric modulator.
(§4) Selected compounds were also screened in the same assay as EU1180-438 to determine their effect on GluN3B.

[4] = target: T3, rat GluN1-4a/GluN3B receptors (Rattus norvegicus, UniProt P35439+Q8VHN2); assay: as above; format: cell-based; details: 0.5 μM CGP-78608
T3 construct: Human GluN3A (NP_597702.2) and rat GluN3B (NP_579842.2) were synthesized and subcloned into SP6 plasmids; expressed in transfected cells; host or cells: Xenopus laevis oocytes, cRNA injection
T3 sequence (Q8VHN2 25-1002, other chains not shown): as above
Source text: as §1, §2, §3, §4

GluN1/GluN3 receptors = details: hydrochloride; cited from earlier work
GluN1 = GluN1 (Homo sapiens, UniProt Q05586); details: read-out: EC50 (glycine binding GluN1); cited from earlier work
[5] = hGluN1^FA,TL/hGluN3A, read-out: IC50
[6] = hGluN1^FA,TL/hGluN3A, read-out: IC50 (95% CI) GluN3A
[7] = pH 7.4, holding potential −40 mV, read-out: EC50, (95% CI) GluN1^FATL/GluN3A
[8] = responses activated by 1000 μM glycine, pH 7.4, read-out: IC50

COc1ccc(OCC(c2ccc(OC(C)C)cc2)N2Cc3ccccc3C2=O)cc1 (stereo not drawn) [EU1180-481, 2-(1-(4-isopropoxyphenyl)-2-(4-methoxyphenoxy)ethyl)isoindolin-1-one]
activity toward recombinant GluN1/GluN2 NMDA receptors (GluN2A-D) ([1]; 30 μM): no detectable activity
hGluN1^FA,TL/hGluN3A (100 × Idrug/Icontrol) [2]: 57%
Max Inhibition [2]: 54%
IC50 [2, 5]: 3.12 µM
IC50 [2, 6]: 3.12 µM

COc1ccc(OCC(c2ccc(OC)cc2)N2Cc3ccccc3C2=O)cc1 (single isomer, unassigned; (+)) [(+) EU1180-438, 2-(2-(4-methoxyphenoxy)-1-(4-methoxyphenyl)ethyl)isoindolin-1-one]
rat GluN1-4a/GluN3B + CGP (100 × Idrug/Icontrol) [3]: 28% @ 10 μM drug
Slope [2]: 1.2
% Inhibition GluN1^FATL/GluN3A ([2]; pH 7.4): 96%^a, (n = 22)
IC50 [2, 7]: 7.1 µM
minimum [2]: 4%
IC50 [2, 8]: 7.1 µM

Cc1cccc(OCC(c2ccc(OC(C)C)cc2)N2Cc3cc(Cl)ccc3C2=O)n1 (stereo not drawn) [EU1180-510, 5-chloro-2-(1-(4-isopropoxyphenyl)-2-((6-methylpyridin-2-yl)oxy)ethyl)isoindolin-1-one]
activity toward recombinant GluN1/GluN2 NMDA receptors (GluN2A-D) [1]: None of them showed any activity
remaining activity at 30 µM [2]: 94%

Cc1cccc(OCC(c2ccc(OC(C)C)cc2)N2Cc3ccccc3C2=O)n1 (stereo not drawn) [EU1180-508, 2-(1-(4-isopropoxyphenyl)-2-((6-methylpyridin-2-yl)oxy)ethyl)isoindolin-1-one]
activity toward recombinant GluN1/GluN2 NMDA receptors (GluN2A-D) [1]: None of them showed any activity
hGluN1^FA,TL/hGluN3A (100 × Idrug/Icontrol) [2]: 28%
IC50 [2, 5]: 3.93 µM

COc1ccc(OCC(c2ccc(OC)cc2)N2Cc3ccccc3C2=O)cc1 (single isomer, unassigned; (-)) [(−) EU1180-438, 2-(2-(4-methoxyphenoxy)-1-(4-methoxyphenyl)ethyl)isoindolin-1-one]
rat GluN1-4a/GluN3B + CGP (100 × Idrug/Icontrol) [3]: 70% @ 10 μM drug
Slope [2]: 1.4
% Inhibition GluN1^FATL/GluN3A ([2]; pH 7.4): 84%^a, (n = 20)
IC50 [2, 7]: 13 µM
minimum [2]: 16%
IC50 [2, 8]: 13 µM

CCOc1ccc(OCC(c2ccc(OC(C)C)cc2)N2Cc3ccccc3C2=O)cc1 (stereo not drawn) [EU1180-499, 2-(2-(4-ethoxyphenoxy)-1-(4-isopropoxyphenyl)ethyl)isoindolin-1-one]
activity toward recombinant GluN1/GluN2 NMDA receptors (GluN2A-D) [1]: None of them showed any activity
hGluN1^FA,TL/hGluN3A (100 × Idrug/Icontrol) [2]: 67%
IC50 [2, 5]: 2.1 µM

COc1ccc(OCC(c2ccc(OC)cc2)N2CCc3ccccc3C2=O)cc1 (stereo not drawn) [EU1180-489, 2-(2-(4-methoxyphenoxy)-1-(4-methoxyphenyl)ethyl)-3,4-dihydroisoquinolin-1(2H)-one]
activity toward recombinant GluN1/GluN2 NMDA receptors (GluN2A-D) ([1]; 30 μM): no detectable activity
IC50 [4]: 3.57 µM
rat GluN1-4a/GluN3B + CGP (100 × Idrug/Icontrol) [3]: 31% @ 10 μM drug
Max Inhibition [2]: 44%
IC50 [2, 6]: 10.8 µM

C[C@@H](NCc1cc(Br)cc2[nH]c(=O)c(=O)[nH]c12)P(=O)(O)O.Cl [CGP-78608, [(1S)-1-[[(7-bromo-1,2,3,4-tetrahydro-2,3-dioxo-5-quinoxalinyl)methyl]amino]ethyl] phosphonic acid hydrochloride]
effect on activation of GluN1/GluN3 receptors (GluN1/GluN3 receptors): dramatically enhance activation of GluN1/GluN3 receptors; also recorded: strongly enhance GluN1/GluN3A current responses

COc1ccc(OCC(c2ccccc2)N2Cc3ccccc3C2=O)cc1 (stereo not drawn) [EU1180-487, 2-(2-(4-methoxyphenoxy)-1-phenyl-ethyl)isoindolin-1-one]
activity toward recombinant GluN1/GluN2 NMDA receptors (GluN2A-D) ([1]; 30 μM): no detectable activity
IC50 [4]: 6.49 µM
rat GluN1-4a/GluN3B + CGP (100 × Idrug/Icontrol) [3]: 42% @ 10 μM drug
Max Inhibition [2]: 78%
IC50 [2, 6]: 10.8 µM

Cc1cccc(OCC(c2ccc(OC(C)C)cc2)N2Cc3ccc(C(F)(F)F)cc3C2=O)n1 (stereo not drawn) [EU1180-511]
activity toward recombinant GluN1/GluN2 NMDA receptors (GluN2A-D) [1]: None of them showed any activity
remaining activity at 30 µM [2]: 94%

COc1ccc(OCC(c2ccccc2)N2CCc3ccccc3C2=O)cc1 (stereo not drawn) [EU1180-488, 2-(2-(4-methoxyphenoxy)-1-phenylethyl)-3,4-dihydroisoquinolin-1(2H)-one]
activity toward recombinant GluN1/GluN2 NMDA receptors (GluN2A-D) ([1]; 30 μM): no detectable activity
IC50 [4]: 3.43 µM
rat GluN1-4a/GluN3B + CGP (100 × Idrug/Icontrol) [3]: 38% @ 10 μM drug
Max Inhibition [2]: 88%
IC50 [2, 6]: 3.29 µM

NCC(=O)O [glycine]
EC50 (GluN1): 0.1 to 1 µM

Cc1cccc(OCC(c2ccc(OC(C)C)cc2)N2Cc3ccc(Cl)cc3C2=O)n1 (stereo not drawn) [EU1180-509, 6-chloro-2-(1-(4-isopropoxyphenyl)-2-((6-methylpyridin-2-yl)oxy)ethyl)isoindolin-1-one]
activity toward recombinant GluN1/GluN2 NMDA receptors (GluN2A-D) [1]: None of them showed any activity
hGluN1^FA,TL/hGluN3A (100 × Idrug/Icontrol) [2]: 81%

COc1ccc(OCC(c2ccc(OC)c(OC)c2)N2Cc3ccccc3C2=O)cc1 (stereo not drawn) [EU1180-494, 2-(1-(3,4-dimethoxyphenyl)-2-(4-methoxyphenoxy)ethyl)isoindolin-1-one]
activity toward recombinant GluN1/GluN2 NMDA receptors (GluN2A-D) ([1]; 30 μM): no detectable activity
Max Inhibition [2]: 3%
